# Patent US12440502B2, “Use of thyroid beta-agonists” (priority 2016, dated 2025)
# What was measured:
# [1] = tested on: X-ALD fibroblast cell lines; assay: Cell health (proliferation, morphology, death) of treated X-ALD fibroblasts; assay type: cell-based, human; conditions: for cell survival of X-ALD cell lines: 100 μM, two X-ALD cell lines; for proliferation and morphology of cells: after 72 hours
# Procedure: Human primary fibroblasts. Human skin fibroblasts were obtained from X-ALD patients through the Neurology Outpatient Clinic of the Academic Medical Center. Written informed consent was received from each patient. X-ALD diagnosis was confirmed by VLCFA and ABCD1 mutation analysis. Control fibroblasts were obtained from male anonymous volunteers with written informed consent. Fibroblasts were cultured in Dulbecco's modified Eagle's medium (DMEM) with L-glutamine and 4.5 g/L glucose, supplemented with 10% fetal calf serum, 2.5 mM HEPES, 100 U/ml penicillin and 100 U/ml streptomycin. Cells were cultured at 37° C. in a humidified 5% CO2 atmosphere. All fibroblast cell lines used were tested routinely for mycoplasma. All tests were negative.
# Preparation of stock solutions. 10 mM stock solutions in DMSO were prepared by weighing the amount of compound (1 and 3 and their respective active metabolites, 2 and 4) as indicated in Table 2. Stock solutions were stored at room temperature in the dark. For each incubation, the amount of tissue culture medium needed was calculated and a stock solution of tissue culture medium with the final concentration of the to-be-tested compound was prepared. Tissue culture medium was removed from the cells, cells were washed once with PBS and the tissue culture medium with the compounds was added. If an experiment lasted longer than three days, the tissue culture medium and compounds were refreshed (using a fresh preparation) after three days until the end of the experiment.
# Two different X-ALD fibroblast cell lines were incubated in duplicate with four compounds at three dosages as highlighted in Table 3.
# 4 X-ALD cell lines were incubated with 10 μM of 4 compounds 1, 2, 3, and 4. The effect of treatment on ABCD2 expression was analyzed at day 3 and day 10. For the 10 day incubation, tissue culture medium and compounds were refreshed at day 3 and day 6.
# [2] = tested on: ABCD1−/− mice; assay: Plasma VLCFA-LPC levels in an in vivo model of X-ALD (second cohort); parameters: species or system mouse
# Procedure: (§1) Animals. Male ABCD1−/− mice were developed using the Taconic 129SvEv background strain. Animals were housed 3-4/cage under a 12-hour lighting cycle (7 AM-7 PM light) and controlled temperature (22° C.) in the rodent facility. They were fed standard mouse chow and had access to drinking water ad libitum. Mice were between 2 and 3 months of age at the beginning of each study.
# (§2) Study Protocol. Mice were injected once daily intraperitoneal with either drug or vehicle. For blood collection, ˜50 μL of blood was obtained by facial vein puncture using a sterile lancet. Blood was collected in a 1.5 ml microcentrifuge tube containing dried dipotassium EDTA and mixed by gentle inversion at least ten times before storing at −20° C. Blood was obtained in this manner following two, four, and six weeks of treatment. Following blood collection at six weeks, animals were sacrificed by cervical dislocation. Additional blood for preparation of plasma was obtained via cardiac puncture, and blood placed in Microtainer tubes. Brain, spinal cord, adrenal glands, testis, and liver were excised and snap frozen in liquid nitrogen for future analyses.
# (§3) Based on the encouraging results of the initial cohort, a second, larger, cohort was evaluated. A total of 20 mice were randomized 1:1 to receive daily compound 3 or vehicle, by IP administration, for six weeks.
# During the second cohort study, blood was obtained as described in the Methods section. At the six week time point sufficient blood was collected to permit plasma VLCFA analyses at weeks two, four and six. Plasma is considered by many to be a more reliable measurement of VLCFA levels, because of reduced analytical interference from other analytes, as well as reduced variability of the measurements.
# [3] = tested on: ABCD1−/− mice; assay: Whole blood VLCFA-LPC levels in an in vivo model of X-ALD; parameters: species or system mouse; conditions: for C26:0-LPC Difference in Mean Change from Baseline / C26:0-LPC % Difference versus Vehicle: initial cohort, whole blood; for Least Squares Mean Change from Baseline Whole Blood C26:0-LPC Levels: second cohort, daily IP
# Procedure: as §1, §2
# An initial cohort of 16 mice were randomized 3:1 to receive compound 3 or placebo, once daily for six weeks. […] Treated animals continued to experience progressive declines in C26:0-LPC through six weeks.
# as §3
# [4] = tested on: X-ALD cell lines; assay: De novo D3-C26:0 synthesis from D3-C22:0 in intact X-ALD cells; assay type: cell-based, human; conditions: 10 day treatment, 5 X-ALD cell lines
# Procedure: The effect of treatment on D3-C26:0 synthesis in intact cells. The effect of certain compounds of the invention on the synthesis of D3-C26:0 from D3-C22:0 was measured in cultured skin fibroblasts from controls and X-ALD patients. Cells were seeded at approximately 40% confluency in T75 flasks in DMEM. The next day, medium was replaced with medium containing 30 μM D3-C22:0 and the assayed compounds at their final concentration. […] Each 72 h, the tissue culture medium and compounds was refreshed. At the end of the experiment cells were harvested and VLCFA analyzed as described (Valianpour et al., Molecular Genetics and Metabolism, 79: 189-196 (2003)).
# (§4) VLCFA measurement. VLCFA were analyzed by electrospray ionization mass spectrometry (ESI-MS) as described (Valianpour et al., Molecular Genetics and Metabolism, 79: 189-196 (2003)).
# (§5) 5 different X-ALD cell lines were incubated for 6 days with compounds 1, 2, 3, and 4 at 10 μM, 5 mM 4PBA (sodium 4-phenylbutyrate), or 0.1 μM sobetirome. On Day 6, 30 μM D3C22:0 was added to assess the effect of treatment on beta-oxidation and de novo D3C26:0 synthesis. 6 untreated control cells as well as 5 different untreated X-ALD cells were included to allow assessment of the treatment effect. The total set consisted of 41 experiments
# [5] = tested on: X-ALD cell lines; assay: D3-C22:0 (VLCFA) beta-oxidation in intact X-ALD cells; assay type: cell-based, human; conditions: 0.1 μM; 10 day treatment; 5 X-ALD cell lines
# Procedure: The effect of treatment on D3-C22:0 beta-oxidation in intact cells. Peroxisomal beta-oxidation activity was measured essentially as described by incubating cells with 30 μM deuterium-labeled C22:0 (D3-C22:0) (Kemp et al., Clinical Chemistry 50: 1824-1826 (2004)). Cells were seeded at approximately 40% confluency in T75 flasks in DMEM. The next day, medium was replaced with medium containing 30 μM D3-C22:0 and assayed compounds at their final concentration. […] Each 72 h, the tissue culture medium and compounds was refreshed. At the end of the experiment cells were harvested and VLCFA analyzed as described (Valianpour et al., Molecular Genetics and Metabolism, 79: 189-196 (2003)).
# as §4, §5
structure (smiles),measurement,setting,value
Cc1cc(OC[P@@]2(=O)OCC[C@@H](c3cccc(Cl)c3)O2)cc(C)c1Cc1ccc(O)c(C(C)C)c1 [Compound 1],cell survival of X-ALD cell lines,[1],dead within 24 hours
same,proliferation and morphology of cells,[1]; 0.1 or 10 μM,looked healthy
Cc1cc(OCP(=O)(O)O)cc(C)c1Cc1ccc(O)c(C(C)C)c1 [Compound 2],proliferation and morphology of cells,"[1]; 0.1, 1 or 10 μM",looked healthy
Cc1cc(OCP(=O)(OCOC(=O)C(C)(C)C)OCOC(=O)C(C)(C)C)cc(C)c1Cc1ccc(O)c(Cc2ccccc2)c1 [Compound 3],cell survival of X-ALD cell lines,[1],dead within 24 hours
same,proliferation and morphology of cells,[1]; 0.1 or 10 μM,looked healthy
same,Plasma C20:0-LPC % Difference vs. Vehicle,"[2]; week 6, p<0.0001",−54%
same,Plasma C22:0-LPC % Difference vs. Vehicle,"[2]; week 6, p<0.0001",−43%
same,Plasma C26:0-LPC % Difference vs. Vehicle,"[2]; week 6, p<0.0001",−29%
same,Plasma C24:0-LPC % Difference vs. Vehicle,"[2]; week 6, p<0.005",−21%
same,"C20:0-, C22:0-, and C24:0-LPC levels",[3]; after six weeks of treatment,significant reductions
same,C26:0-LPC Difference in Mean Change from Baseline,[3]; week 2,-0.052 µM
same,C26:0-LPC % Difference versus Vehicle,"[3]; week 2, p NS",0%
same,C26:0-LPC Difference in Mean Change from Baseline,[3]; week 4,-0.081 µM
same,C26:0-LPC % Difference versus Vehicle,"[3]; week 4, p NS",−11%
same,C26:0-LPC % Difference versus Vehicle,"[3]; week 6, p<0.0001",−40%
same,Least Squares Mean Change from Baseline Whole Blood C26:0-LPC Levels,"[3]; week 2, p NS versus vehicle",-0.021 µM
same,Least Squares Mean Change from Baseline Whole Blood C26:0-LPC Levels,"[3]; week 4, p<0.01 versus vehicle",-0.096 µM
same,Least Squares Mean Change from Baseline Whole Blood C26:0-LPC Levels,"[3]; week 6, p<0.005 versus vehicle",-0.12 µM
"O=C([O-])CCCc1ccccc1.[Na+] [Compound 4PBA, sodium 4-phenylbutyrate]",VLCFA synthesis,[4]; 5 mM,near normal levels
Cc1cc(OCP(=O)(O)O)cc(C)c1Cc1ccc(O)c(Cc2ccccc2)c1 [Compound 4],proliferation and morphology of cells,"[1]; 0.1, 1 or 10 μM",looked healthy
Cc1cc(OCC(=O)O)cc(C)c1Cc1ccc(O)c(C(C)C)c1 [sobetirome],effect on VLCFA beta-oxidation,[5],did not show any beneficial effect
same,effect on VLCFA de novo synthesis,[4]; 0.1 μM,did not show any beneficial effect
